US3991200A, “Substituted nitroimidazolyl thiadiazoles and oxadiazoles as antibacterial agents and growth promoting compounds” (American Cyanamid Company, priority 1973, dated 1976)
Like-named read-outs stand apart in the source and are kept apart here.

Assays:
[1] = system: bacteria; settings: prior-art compounds; cited from earlier work
[2] = concentrations of drug in plasma of noninfected mice (agar-diffusion assay); assay type: in vivo; settings: for Cmax: mouse, read-out: Peak concn. in plasma
Protocol: Concentrations of drug in plasma are determined by assay of blood obtained by heart puncture of noninfected mice. Blood samples (about 0.5 ml. per mouse) from 10 mice receiving the same dose of drug are pooled. The drug is assayed in the plasma by a standard agar-diffusion plate method with Bacillus subtilis (Lederle No. 17) as the test organism.

[3] = solubility in water; assay type: physicochemical
[4] = system: Salmonella gallinarum; experiment: controlling fowl typhoid in chicks, medicated feed; assay type: in vivo, Salmonella gallinarum (in sex-linked pullet chicks); settings: 10 days
Protocol: Groups of five one-day old sex-linked pullet checks are infected orally by gavage with 0.5 ml. of a 10^-^2 dilution of a five-hour Trypticase Soy Broth culture of Salmonella gallinarum, the causative agent of fowl typhoid. Each chick receives approximately 6 × 10^5 viable cells. Medication is administered continuously in the feed, beginning 3 hours before infection and continuing for 10 days, at which time the test is terminated and the number of survivors in each group recorded. Each test utilizes two control groups of chicks, the first group comprising 20 chicks which are infected and untreated, and the second group comprising 10 chicks which are uninfected and untreated. The results of the tests are set forth in the following Table III (in some instances, the results from two or more tests are combined): […]

[5] = system: Staphylococcus aureus strain Rose; experiment: antibacterial activity in mice, Tests with Staphylococcus aureus strain Rose; assay type: in vivo, Staphylococcus aureus (in Carworth Farms CFl-s female mice); settings: read-out: Results alive/tested (converted)
Protocol: (§1) Experiments were conducted to determine the antibacterial activity of compounds of the present invention against Proteus mirabilis, Staphylococus aureus strain Smith and Staphylococcus aureus strain Rose a tetracycline-resistant strain of Staphylococcus aureus. Infection was initiated in Carworth Farms CFl-s female mice (body weight […].) by intra-abdominal infection of 0.5 ml. of the broth dilutions of 5 hour cultures of the above organisms.

[6] = system: Pasteurella multocida; experiment: controlling a Pasteurella multocida infection in mice; assay type: in vivo, Pasteurella multocida (in Swiss Webster female mice); settings: 336 h, 2 mg./mouse by gavage, two weeks post-infection, read-out: Survivors/Total (converted)
Protocol: Swiss Webster, female mice weighing 22±2 g. were infected by intrapeutoneal injection of 0.5 ml. of a 5 hour Trypticase Soy Broth culture containing 10^7 cfu. of P. multocida. Each mouse was given by gavage at the time of infection 2 mg. of the test drug suspended in 0.2% agar.

[7] = system: Escherichia coli; experiment: controlling colibacillosis in chicks infected with Escherichia coli, single oral dose; assay type: in vivo, Escherichia coli (in sex-linked pullet chicks); settings: 20 chicks tested, 12 days after treatment
Protocol: Three groups of 10 five-day old sex-linked pullet chicks are infected parenterally, in the left thoracic air sac, with 0.2 ml. of a 10^-^1 dilution of a Trypticase Soy Broth culture of Escherichia coli, the causative agent of colibacillosis in poultry. The compounds to be tested are administered by gavage as a single oral dose in an aqueous solution or suspension, and the chicks are permitted to feed ad libitum the feed composition prepared in Example 44. Twelve days after treatment, the test is terminated and the number of survivors in each group recorded.
Four groups of 40, five-day old sex-linked pullet chicks are infected in the same manner as herein set forth with Escherichia coli. […] Twelve days after treatment, the test is terminated and the number of survivors in each group recorded.

[8] = system: Pasteurella multocida; experiment: controlling a Pasteurella multocida infection in mice; assay type: in vivo, Pasteurella multocida (in Swiss Webster female mice); settings: 336 h, two weeks post-infection, read-out: Survivors/Total (converted); for responders at 0.25 mg: 0.25 mg./mouse by gavage; for responders at 0.5 mg: 0.5 mg./mouse by gavage; for responders at 1 mg: 1 mg./mouse by gavage
[9] = system: Salmonella choleraesuis var. kunzendorf; experiment: controlling enteritis, mice infected with Salmonella choleraesuis, medicated feed; assay type: in vivo; settings: 10 mice tested
Protocol: Three groups of ten female Swiss Webster mice weighing 20 gm. are infected intraperitoneally with 0.5 ml. of 10^-^2 dilution of a five-hour Trypticase Soy Broth culture of Salmonella choleraesuis var. kunzendorf, the causitive agent of enteritis in pigs, an organism originally recovered from a field outbreak of Salmonella choleraesuis var. kunzendorf in pigs. Each mouse receives approximately 4.6 × 10^7 cells as the inoculating dose.
The mice are fed a medicated feed, which is a commercial mouse chow containing the compounds to be tested for 3 hours before the infection until 7 days after infection. The mice are held for an additional 7 days after the medication is stopped, and the number of survivors in each group recorded. The medicated feed is prepared by thoroughly admixing calculated amounts of the compounds with commercial mouse chow to provide essentially uniform distribution in the feed offered.

[10] = system: Staphylococcus aureus strain Smith; experiment: antibacterial activity in mice, Tests with Staphylococcus aureus strain Smith; assay type: in vivo, Staphylococcus aureus (in Carworth Farms CFl-s female mice); settings: read-out: Results alive/tested (converted)
Protocol: as §1

[11] = system: Proteus mirabilis; experiment: antibacterial activity in mice, Tests with Proteus mirabilis; assay type: in vivo, Proteus mirabilis (in Carworth Farms CFl-s female mice); settings: 256 mg/kg
Protocol: as §1

[12] = system: Salmonella choleraesuis var. kunzendorf; experiment: controlling enteritis caused by Salmonella choleraesuis in swine, medicated feed; assay type: in vivo, Salmonella choleraesuis var. kunzendorf (in pigs)
Description: In the late afternoon of the day before infection, feed is removed from all pens. The following morning each group receives 2.5 lbs. of feed mixed either with normal broth or broth containing Salmonella choleraesuis variety kunzendorf organisms. […] For the rest of the trial the pigs are observed and graded daily. […] The trial is terminated four weeks after infection.

[13] = 0.006% in feed, 10 chicks tested
[14] = 0.025% in feed, 10 chicks tested

Cn1c([N+](=O)[O-])cnc1C=NN1CCNC1=O [1-[(1-methyl-5-nitro-2-imidazolylmethylene)amino]-2-imidazolidinone]
antibacterial activity, in words [1]: some antibacterial activity

Cn1c([N+](=O)[O-])cnc1-c1nnc(N)s1 [2-(2-Amino-5-Thiadiazolyl)-1-methyl-5-nitroimidazole]
absorption, in words ([2]; mice): rapidly absorbed
Cmax ([2]; in vivo, 89 mg/kg): 14000 to 18000 ng/mL
Cmax ([2]; plasma, 0.2 mg/kg): < 1000 ng/mL
Cmax ([2]; plasma, 16 mg/kg): 2000 to 4000 ng/mL
Cmax ([2]; plasma, 56 mg/kg): 6000 to 12000 ng/mL
solubility in water, in words [3]: relatively insoluble in water

CCn1c([N+](=O)[O-])cnc1-c1nnc(N)o1 [2-(2-Amino-5-oxadiazolyl)-1-ethyl-5-nitroimidazole]
Survivors ([4]; 0.006% in feed, 5 chicks tested): 3
Survivors ([4]; 0.025% in feed, 5 chicks tested): 5
Survivors ([4]; 0.1% in feed, 10 chicks tested): 10
responders at 512 mg/kg [5]: 100%
responders at 2 mg [6]: 80%

Cn1c([N+](=O)[O-])cnc1-c1nnc(N)o1 [2-(2-Amino-5-oxadiazolyl)-1-methyl-5-nitroimidazole]
Survivors ([7]; 5 mg/kg single oral dose): 7
Survivors ([7]; 20 mg/kg single oral dose): 13
Survivors ([7]; 80 mg/kg single oral dose): 15
Survivors [4, 13]: 9
Survivors [4, 14]: 10
Survivors ([4]; 0.1% in feed, 10 chicks tested): 10
responders at 512 mg/kg [5]: 100%
responders at 2 mg [6]: 70%
responders at 0.25 mg [8]: 10%
responders at 0.5 mg [8]: 15%
responders at 1 mg [8]: 40%

CCn1c([N+](=O)[O-])cnc1-c1nnc(N)s1 [2-(2-Amino-5-thiadiazolyl)-1-ethyl-5-nitroimidazole]
Survivors [4, 14]: 9
Survivors ([4]; 0.1% in feed, 10 chicks tested): 10
Survivors ([9]; 0.025% in mouse chow): 3
Survivors ([9]; 0.1 % in mouse chow): 9
responders at 512 mg/kg [5]: 100%
responders at 2 mg [6]: 100%

CN(C)c1nnc(-c2ncc([N+](=O)[O-])n2C)o1 [2-(2-Dimethylamino-5-oxadiazolyl)-1-methyl-5-nitroimidazole]
Survivors [4, 13]: 2
Survivors [4, 14]: 9
Survivors ([4]; 0.1% in feed, 10 chicks tested): 9
responders at 512 mg/kg [5]: 100%

CN(C)c1nnc(-c2ncc([N+](=O)[O-])n2C)s1 [2-(2-Dimethylamino-5-thiadiazolyl)-1-methyl-5-nitroimidazole]
Survivors ([4]; 0.1% in feed, 5 chicks tested): 4
responders at 512 mg/kg ([10]; 512 mg/kg): 80%

Cn1c([N+](=O)[O-])cnc1-c1nnc(NC=O)s1 [2-(2-Formamido-5-Thiadiazolyl)-1-methyl-5-nitroimidazole]
Survivors ([4]; 0.006% in feed, 15 chicks tested): 9
Survivors ([4]; 0.025% in feed, 15 chicks tested): 11
Survivors ([4]; 0.1% in feed, 10 chicks tested): 5
responders at 64 mg/kg [10]: 100%
responders at 512 mg/kg [5]: 100%
responders at 2 mg [6]: 100%
responders at 0.25 mg [8]: 80%
responders at 0.5 mg [8]: 100%
responders at 1 mg [8]: 90%

CNc1nnc(-c2ncc([N+](=O)[O-])n2C)s1 [2-(2-Methylamino-5-thiadiazolyl)-1-methyl-5-nitroimidazole]
Survivors ([4]; 0.1% in feed, 5 chicks tested): 3
Results alive/tested [11]: 4/5
responders at 512 mg/kg [5]: 80%

CN(C)CCCN1CCN(c2nnc(-c3ncc([N+](=O)[O-])n3C)s2)CC1 [2-{2-[4-(3-Dimethylaminopropyl)-1-piperazinyl]-5-thiadiazolyl}-1-methyl-5-nitroimidazole]
responders at 256 mg/kg [10]: 60%
responders at 2 mg [6]: 100%

CN(C)C=Nc1nnc(-c2ncc([N+](=O)[O-])n2C)s1 [2-{2-[ (Dimethylaminomethylene)amino]-5-thiadiazolyl} -1-methyl-5-nitroimidazole]
Survivors ([4]; 0.05% in feed, 5 chicks tested): 5
Survivors ([4]; 0.1% in feed, 5 chicks tested): 5
Results alive/tested [11]: 3/5
responders at 64 mg/kg [10]: 100%
responders at 2 mg [6]: 100%
responders at 0.25 mg [8]: 80%
responders at 0.5 mg [8]: 97.5%
responders at 1 mg [8]: 93.3%

CCOC(=O)N1CCN(c2nnc(-c3ncc([N+](=O)[O-])n3C)s2)CC1 [2[2-(4-Carbethoxy-1-piperazinyl)-5-thiadiazolyl]-1-methyl-5-nitroimidazole]
responders at 256 mg/kg [10]: 80%

Cn1c([N+](=O)[O-])cnc1C=NN1CCOC1=O [3-[(1-methyl-5-nitro-2-imidazolylmethylene)amino]-2-oxazolidinone]
antibacterial activity, in words [1]: some antibacterial activity

O=C1OCCN1/N=C/c1ccc([N+](=O)[O-])o1 [Furazolidone]
Median Survival Time ([12]; 50 ppm in diet): 6.8 days
Survivors Per Total ([12]; 50 ppm in diet ([…] per day nitroimidazole, 2.1 furazolidone)): 0/10
Median Survival Time ([12]; 200 ppm in diet): 10.0 days
Survivors Per Total ([12]; 200 ppm in diet (12.3 mg/kg per day nitroimidazole, 7.5 furazolidone), *9/10 differs significantly from infected-untreated (P<.01)): 2/10
